This passage reports residual kinase activity results from PMC11167047 (Cell Death Discovery, 2024).

Holding throughout (experiment): kinome screen (33PanQinase)
Holding throughout (type): biochemical

For one test, the target named is T1, BLK (Homo sapiens, UniProt P51451).
T1 construct: purchased Reaction Biology Europe GmbH (formerly ProQinase)
As to the method: (§1) The Kinome Screening was performed by Reaction Biology Europe GmbH (http://reactionbiology.com; Freiburg i. Br., Germany).

The target in a further test is T2, CAMK2D (Homo sapiens, UniProt Q13557).
T2 construct: purchased Reaction Biology Europe GmbH (formerly ProQinase)
T2 sequence (Q13557 whole entry): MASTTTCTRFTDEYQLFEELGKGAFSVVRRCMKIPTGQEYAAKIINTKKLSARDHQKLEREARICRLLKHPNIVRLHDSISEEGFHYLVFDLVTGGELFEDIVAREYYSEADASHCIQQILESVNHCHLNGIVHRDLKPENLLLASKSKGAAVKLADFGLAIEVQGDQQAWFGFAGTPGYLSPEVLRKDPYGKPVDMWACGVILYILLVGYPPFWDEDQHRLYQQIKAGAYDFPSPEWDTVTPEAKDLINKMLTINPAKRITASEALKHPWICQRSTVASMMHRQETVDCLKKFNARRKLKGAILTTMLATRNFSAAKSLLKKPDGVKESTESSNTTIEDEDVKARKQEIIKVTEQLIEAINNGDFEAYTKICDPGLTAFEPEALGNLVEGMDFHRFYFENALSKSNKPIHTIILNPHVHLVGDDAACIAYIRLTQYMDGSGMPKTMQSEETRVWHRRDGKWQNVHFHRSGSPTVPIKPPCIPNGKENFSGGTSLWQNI
As to the method:
as §1

Another test deals with T3, CDK1/CycB1 (Homo sapiens, UniProt P06493).
T3 construct: purchased Reaction Biology Europe GmbH (formerly ProQinase)
T3 sequence (P06493 whole entry): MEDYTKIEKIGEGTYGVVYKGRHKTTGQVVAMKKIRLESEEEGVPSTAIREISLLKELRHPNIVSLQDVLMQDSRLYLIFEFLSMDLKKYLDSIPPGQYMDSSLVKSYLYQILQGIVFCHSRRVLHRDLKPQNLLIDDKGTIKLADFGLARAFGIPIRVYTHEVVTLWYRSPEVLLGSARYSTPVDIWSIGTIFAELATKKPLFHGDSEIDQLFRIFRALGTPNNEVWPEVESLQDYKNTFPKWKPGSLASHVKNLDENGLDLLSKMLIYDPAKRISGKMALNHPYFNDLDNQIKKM
T3 sequence (P14635 whole entry partner): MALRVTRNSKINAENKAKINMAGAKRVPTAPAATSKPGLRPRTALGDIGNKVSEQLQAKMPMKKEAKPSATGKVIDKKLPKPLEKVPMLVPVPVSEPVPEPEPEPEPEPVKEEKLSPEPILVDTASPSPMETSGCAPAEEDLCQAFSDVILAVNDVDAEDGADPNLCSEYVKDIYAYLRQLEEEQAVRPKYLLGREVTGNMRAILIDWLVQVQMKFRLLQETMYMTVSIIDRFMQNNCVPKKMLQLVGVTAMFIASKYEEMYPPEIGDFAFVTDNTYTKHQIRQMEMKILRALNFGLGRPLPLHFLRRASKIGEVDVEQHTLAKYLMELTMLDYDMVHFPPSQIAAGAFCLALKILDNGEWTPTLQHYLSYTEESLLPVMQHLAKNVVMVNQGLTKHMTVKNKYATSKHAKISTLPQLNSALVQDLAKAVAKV
As to the method:
as §1

The target in the next test is T4, EPHB4 (Homo sapiens, UniProt P54760).
T4 construct: purchased Reaction Biology Europe GmbH (formerly ProQinase)
T4 sequence (P54760 16-987): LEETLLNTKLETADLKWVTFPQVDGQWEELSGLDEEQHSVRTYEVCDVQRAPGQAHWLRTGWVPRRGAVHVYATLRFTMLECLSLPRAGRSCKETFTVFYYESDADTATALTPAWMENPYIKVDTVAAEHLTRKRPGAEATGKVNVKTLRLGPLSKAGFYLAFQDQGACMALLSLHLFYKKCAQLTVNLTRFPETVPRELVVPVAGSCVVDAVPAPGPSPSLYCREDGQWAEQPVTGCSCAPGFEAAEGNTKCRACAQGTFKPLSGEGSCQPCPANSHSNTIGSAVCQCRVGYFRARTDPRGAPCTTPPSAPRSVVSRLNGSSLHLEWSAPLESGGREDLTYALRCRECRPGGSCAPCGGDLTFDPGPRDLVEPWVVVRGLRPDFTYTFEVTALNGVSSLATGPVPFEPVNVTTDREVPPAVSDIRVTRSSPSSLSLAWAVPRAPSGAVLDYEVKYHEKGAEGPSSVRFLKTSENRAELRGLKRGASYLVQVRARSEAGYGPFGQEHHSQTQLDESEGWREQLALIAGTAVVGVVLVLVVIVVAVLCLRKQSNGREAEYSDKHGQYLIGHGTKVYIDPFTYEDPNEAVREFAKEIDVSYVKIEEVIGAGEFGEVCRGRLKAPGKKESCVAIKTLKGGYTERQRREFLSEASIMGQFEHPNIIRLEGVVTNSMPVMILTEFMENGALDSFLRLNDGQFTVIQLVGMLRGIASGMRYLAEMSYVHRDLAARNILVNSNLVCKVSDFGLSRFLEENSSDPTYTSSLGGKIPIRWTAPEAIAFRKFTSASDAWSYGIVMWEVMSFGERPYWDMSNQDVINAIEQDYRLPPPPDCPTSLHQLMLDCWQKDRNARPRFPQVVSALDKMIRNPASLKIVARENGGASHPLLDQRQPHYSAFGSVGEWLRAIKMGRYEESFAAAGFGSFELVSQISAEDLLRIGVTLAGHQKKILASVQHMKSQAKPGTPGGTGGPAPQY
As to the method:
as §1

The next test has as its target T5, ERBB2 (Homo sapiens, UniProt P04626).
T5 construct: purchased Reaction Biology Europe GmbH (formerly ProQinase)
On the procedure:
as §1

The next test concerns the target T6, HIPK4 (Homo sapiens, UniProt Q8NE63).
T6 construct: purchased Reaction Biology Europe GmbH (formerly ProQinase)
T6 sequence (Q8NE63 1-616): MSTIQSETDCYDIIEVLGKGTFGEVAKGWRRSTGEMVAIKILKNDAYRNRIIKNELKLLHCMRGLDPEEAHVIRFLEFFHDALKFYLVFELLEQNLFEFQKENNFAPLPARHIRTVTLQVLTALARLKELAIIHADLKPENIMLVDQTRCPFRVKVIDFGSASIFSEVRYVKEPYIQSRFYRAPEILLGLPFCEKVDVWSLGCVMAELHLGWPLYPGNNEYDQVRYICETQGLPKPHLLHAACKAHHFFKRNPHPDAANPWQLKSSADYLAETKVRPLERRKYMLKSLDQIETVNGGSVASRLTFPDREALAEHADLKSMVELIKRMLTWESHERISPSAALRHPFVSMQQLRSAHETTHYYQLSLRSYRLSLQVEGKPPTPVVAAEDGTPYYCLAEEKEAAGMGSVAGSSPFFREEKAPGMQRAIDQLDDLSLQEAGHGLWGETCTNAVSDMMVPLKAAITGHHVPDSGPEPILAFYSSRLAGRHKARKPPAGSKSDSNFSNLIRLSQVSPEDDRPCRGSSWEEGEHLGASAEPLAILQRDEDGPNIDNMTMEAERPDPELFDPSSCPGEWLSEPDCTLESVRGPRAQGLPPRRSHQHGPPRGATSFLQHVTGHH
On the procedure:
as §1

In a further test the target is T7, MST4 (Homo sapiens, UniProt Q9P289).
T7 construct: purchased Reaction Biology Europe GmbH (formerly ProQinase)
T7 sequence (Q9P289 whole entry): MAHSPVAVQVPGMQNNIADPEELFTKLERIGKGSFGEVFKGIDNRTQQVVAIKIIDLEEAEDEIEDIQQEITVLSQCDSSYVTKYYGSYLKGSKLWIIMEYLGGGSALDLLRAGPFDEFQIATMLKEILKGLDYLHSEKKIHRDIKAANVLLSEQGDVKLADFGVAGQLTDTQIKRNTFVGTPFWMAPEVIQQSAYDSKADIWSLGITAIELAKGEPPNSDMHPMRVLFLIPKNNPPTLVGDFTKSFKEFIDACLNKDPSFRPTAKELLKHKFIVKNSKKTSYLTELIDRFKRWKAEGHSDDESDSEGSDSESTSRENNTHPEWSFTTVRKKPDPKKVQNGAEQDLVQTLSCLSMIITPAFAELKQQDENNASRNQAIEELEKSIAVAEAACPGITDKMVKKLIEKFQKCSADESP
As to the method: as §1

The target of a further test is T8, PKA (Homo sapiens, UniProt P17612).
T8 construct: purchased Reaction Biology Europe GmbH (formerly ProQinase)
As to the method: as §1

In a further test the target is T9, PRKX (Homo sapiens, UniProt P51817).
T9 construct: purchased Reaction Biology Europe GmbH (formerly ProQinase)
T9 sequence (P51817 1-358): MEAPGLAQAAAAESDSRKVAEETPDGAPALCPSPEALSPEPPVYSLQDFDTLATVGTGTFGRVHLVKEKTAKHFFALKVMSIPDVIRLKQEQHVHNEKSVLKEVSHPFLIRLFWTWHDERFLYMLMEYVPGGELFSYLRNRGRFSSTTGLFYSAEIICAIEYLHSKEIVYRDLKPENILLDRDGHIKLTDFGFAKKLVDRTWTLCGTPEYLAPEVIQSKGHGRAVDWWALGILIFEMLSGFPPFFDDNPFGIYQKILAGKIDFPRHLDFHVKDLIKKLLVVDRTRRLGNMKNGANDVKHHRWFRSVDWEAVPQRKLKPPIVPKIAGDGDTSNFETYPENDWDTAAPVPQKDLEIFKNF
On the procedure: as §1

The target in the next test is T10, STK25 (Homo sapiens, UniProt O00506).
T10 construct: purchased Reaction Biology Europe GmbH (formerly ProQinase)
T10 sequence (O00506 whole entry): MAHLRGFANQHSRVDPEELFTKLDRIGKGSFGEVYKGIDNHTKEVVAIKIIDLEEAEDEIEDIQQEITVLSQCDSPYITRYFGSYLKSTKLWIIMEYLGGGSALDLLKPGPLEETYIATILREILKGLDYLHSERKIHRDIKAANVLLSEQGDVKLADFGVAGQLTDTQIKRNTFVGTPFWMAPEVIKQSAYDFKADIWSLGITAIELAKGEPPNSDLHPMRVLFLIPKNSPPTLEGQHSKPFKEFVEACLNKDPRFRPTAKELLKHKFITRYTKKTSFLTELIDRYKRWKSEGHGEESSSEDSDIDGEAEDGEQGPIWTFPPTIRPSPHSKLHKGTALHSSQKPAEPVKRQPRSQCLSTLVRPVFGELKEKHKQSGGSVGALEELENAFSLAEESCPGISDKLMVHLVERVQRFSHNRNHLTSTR
On the procedure:
as §1

The next test deals with T11, YES (Homo sapiens, UniProt P07947).
T11 construct: purchased Reaction Biology Europe GmbH (formerly ProQinase)
T11 sequence (P07947 whole entry): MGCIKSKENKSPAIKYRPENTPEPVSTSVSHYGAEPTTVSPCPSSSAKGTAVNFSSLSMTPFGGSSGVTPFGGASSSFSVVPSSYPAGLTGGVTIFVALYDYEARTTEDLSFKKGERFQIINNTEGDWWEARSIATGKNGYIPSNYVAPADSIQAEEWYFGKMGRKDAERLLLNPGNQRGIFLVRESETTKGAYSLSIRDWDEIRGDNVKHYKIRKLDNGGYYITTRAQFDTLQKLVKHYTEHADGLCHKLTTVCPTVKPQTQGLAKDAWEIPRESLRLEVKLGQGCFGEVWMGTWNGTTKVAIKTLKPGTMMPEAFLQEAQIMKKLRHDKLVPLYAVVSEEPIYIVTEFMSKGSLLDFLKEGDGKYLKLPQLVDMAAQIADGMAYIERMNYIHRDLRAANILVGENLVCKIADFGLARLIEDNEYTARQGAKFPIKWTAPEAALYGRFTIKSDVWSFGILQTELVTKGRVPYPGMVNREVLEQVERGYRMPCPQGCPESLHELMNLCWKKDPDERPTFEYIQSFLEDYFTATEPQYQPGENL
On the procedure:
as §1

The target of a further test is T12, p38α (Homo sapiens, UniProt Q16539).
T12 construct: purchased Reaction Biology Europe GmbH (formerly ProQinase)
T12 sequence (Q16539 whole entry): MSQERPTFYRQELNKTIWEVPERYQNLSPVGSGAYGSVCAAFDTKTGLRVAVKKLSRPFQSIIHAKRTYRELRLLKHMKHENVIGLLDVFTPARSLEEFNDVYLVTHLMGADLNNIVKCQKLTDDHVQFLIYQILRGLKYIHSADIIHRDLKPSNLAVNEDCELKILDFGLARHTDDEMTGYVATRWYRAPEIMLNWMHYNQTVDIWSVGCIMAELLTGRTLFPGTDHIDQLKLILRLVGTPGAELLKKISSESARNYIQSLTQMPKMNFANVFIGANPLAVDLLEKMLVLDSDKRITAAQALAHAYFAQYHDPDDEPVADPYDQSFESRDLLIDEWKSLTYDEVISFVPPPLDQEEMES
As to the method: as §1

SMILES strings stand for the structures.

T5 sequence (P04626 23-1255): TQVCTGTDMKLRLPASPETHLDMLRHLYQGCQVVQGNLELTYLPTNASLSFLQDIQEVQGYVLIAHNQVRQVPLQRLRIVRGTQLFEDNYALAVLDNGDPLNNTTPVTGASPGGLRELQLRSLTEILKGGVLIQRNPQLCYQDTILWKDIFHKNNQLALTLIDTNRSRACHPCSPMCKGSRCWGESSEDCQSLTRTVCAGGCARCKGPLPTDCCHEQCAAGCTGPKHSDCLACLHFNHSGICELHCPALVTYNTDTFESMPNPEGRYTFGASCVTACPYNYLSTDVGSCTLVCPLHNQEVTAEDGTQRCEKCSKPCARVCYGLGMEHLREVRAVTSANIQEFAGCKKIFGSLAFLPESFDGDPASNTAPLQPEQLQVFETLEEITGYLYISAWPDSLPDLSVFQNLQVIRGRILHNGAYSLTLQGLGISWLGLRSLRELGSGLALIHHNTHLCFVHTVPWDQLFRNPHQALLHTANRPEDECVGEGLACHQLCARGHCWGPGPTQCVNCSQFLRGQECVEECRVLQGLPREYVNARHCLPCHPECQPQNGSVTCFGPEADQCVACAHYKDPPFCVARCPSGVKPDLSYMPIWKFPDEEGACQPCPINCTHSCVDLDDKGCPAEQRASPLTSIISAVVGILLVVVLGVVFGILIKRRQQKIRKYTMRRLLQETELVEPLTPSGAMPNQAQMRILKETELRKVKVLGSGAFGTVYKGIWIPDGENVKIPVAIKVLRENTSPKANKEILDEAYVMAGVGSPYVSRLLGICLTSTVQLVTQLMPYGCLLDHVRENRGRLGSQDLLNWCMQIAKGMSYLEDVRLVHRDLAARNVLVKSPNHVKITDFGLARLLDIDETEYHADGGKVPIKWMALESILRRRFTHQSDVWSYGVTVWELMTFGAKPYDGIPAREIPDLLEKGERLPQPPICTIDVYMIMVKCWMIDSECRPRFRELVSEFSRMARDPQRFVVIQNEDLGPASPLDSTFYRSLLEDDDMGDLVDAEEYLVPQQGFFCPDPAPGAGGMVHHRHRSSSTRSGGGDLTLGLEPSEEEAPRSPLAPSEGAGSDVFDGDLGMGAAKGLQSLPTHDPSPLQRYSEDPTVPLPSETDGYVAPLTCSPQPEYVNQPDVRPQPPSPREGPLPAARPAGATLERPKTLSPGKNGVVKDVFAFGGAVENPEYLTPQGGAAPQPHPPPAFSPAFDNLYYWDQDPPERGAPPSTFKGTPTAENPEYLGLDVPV
T1 sequence (P51451 whole entry): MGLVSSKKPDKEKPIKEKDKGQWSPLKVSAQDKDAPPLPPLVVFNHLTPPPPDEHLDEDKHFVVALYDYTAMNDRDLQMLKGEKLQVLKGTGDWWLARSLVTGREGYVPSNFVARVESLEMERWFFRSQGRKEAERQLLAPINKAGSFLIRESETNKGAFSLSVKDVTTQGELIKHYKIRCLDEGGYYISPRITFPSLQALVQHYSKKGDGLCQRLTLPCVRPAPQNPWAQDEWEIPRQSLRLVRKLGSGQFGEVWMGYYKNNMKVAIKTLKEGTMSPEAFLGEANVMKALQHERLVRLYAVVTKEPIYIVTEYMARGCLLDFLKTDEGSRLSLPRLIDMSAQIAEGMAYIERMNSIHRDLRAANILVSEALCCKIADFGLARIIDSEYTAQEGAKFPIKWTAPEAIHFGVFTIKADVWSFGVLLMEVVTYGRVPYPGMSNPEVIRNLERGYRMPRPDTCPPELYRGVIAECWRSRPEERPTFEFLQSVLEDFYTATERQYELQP

For `c1ccc(CNc2cc(-c3c[nH]c4ncccc34)ccn2)cc1` [meriolin 36], the residual kinase activity at BLK (0.3 µM) is 88 % of control; at BLK (3 µM), 13 % of control; at CAMK2D (0.3 µM) it was 16 % of control; at CAMK2D (3 µM), 1 % of control; on CDK1/CycB1 (0.3 µM) it was 4 % of control; at CDK1/CycB1 (3 µM), 1 % of control. Also, the residual kinase activity is recorded as 110 % of control on EPHB4 (0.3 µM); 85 % of control on EPHB4 (3 µM); 90 % of control at ERBB2 (0.3 µM); 44 % of control on ERBB2 (3 µM); 27 % of control on HIPK4 (0.3 µM); 2 % of control on HIPK4 (3 µM). Also, the residual kinase activity at MST4 (0.3 µM) was 52 % of control; at MST4 (3 µM), 12 % of control; on PKA (0.3 µM), 12 % of control; on PKA (3 µM) it was 2 % of control; on PRKX (0.3 µM), 15 % of control; at PRKX (3 µM), -1 % of control. For the same molecule, the residual kinase activity at STK25 (0.3 µM) is on record as 33 % of control; on STK25 (3 µM), 6 % of control; at YES (0.3 µM), 65 % of control; on YES (3 µM) it was 19 % of control; at p38α (0.3 µM) it was 78 % of control; at p38α (3 µM), 80 % of control.

As for `COc1ccnc2[nH]cc(-c3cc(N)nc(N)c3)c12` [meriolin 16], the residual kinase activity was 126 % of control at BLK (0.03 µM); 95 % of control at BLK (0.3 µM); 99 % of control at CAMK2D (0.03 µM); 64 % of control on CAMK2D (0.3 µM); 29 % of control on CDK1/CycB1 (0.03 µM); 5 % of control on CDK1/CycB1 (0.3 µM). Moreover, the residual kinase activity at EPHB4 (0.03 µM) is 97 % of control; on EPHB4 (0.3 µM), 90 % of control; on ERBB2 (0.03 µM), 102 % of control; at ERBB2 (0.3 µM) it was 102 % of control; at HIPK4 (0.03 µM), 74 % of control; at HIPK4 (0.3 µM), 24 % of control. Also, the residual kinase activity at MST4 (0.03 µM) is 78 % of control; on MST4 (0.3 µM), 81 % of control; on PKA (0.03 µM), 75 % of control; on PKA (0.3 µM), 43 % of control; on PRKX (0.03 µM), 54 % of control; at PRKX (0.3 µM) it was 3 % of control. Besides, the residual kinase activity on STK25 (0.03 µM) is 99 % of control; at STK25 (0.3 µM), 81 % of control; at YES (0.03 µM) it was 100 % of control; on YES (0.3 µM), 90 % of control; on p38α (0.03 µM) it was 94 % of control; at p38α (0.3 µM), 74 % of control.
